Laboratory results: patent EP0942911B1, “BENZOPYRANOPYRROLE AND BENZOPYRANOPYRIDINE ALPHA-1 ADRENERGIC COMPOUNDS” (Abbott Laboratories, priority 1996, dated 1998)
Counter-ions that a name gives are not always drawn. Like-named read-outs stand apart in the source and are kept apart here.

What was measured:
α-1B adrenoreceptor = target: T1, α-1B adrenoreceptor (Rattus norvegicus, UniProt P15823); assay: cell-based; details: phenylephrine-induced contraction, Schild plot; for Kb: read-out: In Vitro Characterization (pA2) Rat Spleen (converted)
T1 construct: from tissue; host or cells: rat spleen
T1 sequence (P15823 1-515): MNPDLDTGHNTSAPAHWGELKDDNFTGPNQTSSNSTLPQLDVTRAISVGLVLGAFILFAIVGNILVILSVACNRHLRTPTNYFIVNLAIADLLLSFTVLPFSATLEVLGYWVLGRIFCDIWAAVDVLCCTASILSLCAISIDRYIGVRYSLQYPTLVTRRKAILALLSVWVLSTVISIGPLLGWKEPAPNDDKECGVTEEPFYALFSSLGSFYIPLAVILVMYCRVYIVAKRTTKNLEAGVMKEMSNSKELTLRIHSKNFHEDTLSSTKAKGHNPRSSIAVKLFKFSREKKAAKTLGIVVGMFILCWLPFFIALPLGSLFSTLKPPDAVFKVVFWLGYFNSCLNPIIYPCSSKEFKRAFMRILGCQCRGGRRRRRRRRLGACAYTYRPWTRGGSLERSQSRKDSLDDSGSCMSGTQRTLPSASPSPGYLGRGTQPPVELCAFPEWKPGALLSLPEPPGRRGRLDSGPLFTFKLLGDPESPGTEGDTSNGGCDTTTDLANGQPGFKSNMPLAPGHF
From the text: Functional assays indicative of pharmacologically defined α-1 adrenoreceptors were used to further characterize compounds. Inhibition of phenylephrine (PE)-induced contraction of canine prostate smooth muscle can be correlated with α-1A adrenoreceptor activation. […] For each of these models, agonist dose response curves were repeated against increasing concentrations of test agent to derive a Schild plot [log ([…]) against log (molarity of test agent)] to determine the pA2.

α-1d adrenoreceptor = target: T2, α-1d adrenoreceptor (Rattus norvegicus, UniProt P23944); assay: biochemical; format: binding; details: read-out: Radioligand Binding (Ki, nM) 1d (Rat)
T2 sequence (P23944 1-561): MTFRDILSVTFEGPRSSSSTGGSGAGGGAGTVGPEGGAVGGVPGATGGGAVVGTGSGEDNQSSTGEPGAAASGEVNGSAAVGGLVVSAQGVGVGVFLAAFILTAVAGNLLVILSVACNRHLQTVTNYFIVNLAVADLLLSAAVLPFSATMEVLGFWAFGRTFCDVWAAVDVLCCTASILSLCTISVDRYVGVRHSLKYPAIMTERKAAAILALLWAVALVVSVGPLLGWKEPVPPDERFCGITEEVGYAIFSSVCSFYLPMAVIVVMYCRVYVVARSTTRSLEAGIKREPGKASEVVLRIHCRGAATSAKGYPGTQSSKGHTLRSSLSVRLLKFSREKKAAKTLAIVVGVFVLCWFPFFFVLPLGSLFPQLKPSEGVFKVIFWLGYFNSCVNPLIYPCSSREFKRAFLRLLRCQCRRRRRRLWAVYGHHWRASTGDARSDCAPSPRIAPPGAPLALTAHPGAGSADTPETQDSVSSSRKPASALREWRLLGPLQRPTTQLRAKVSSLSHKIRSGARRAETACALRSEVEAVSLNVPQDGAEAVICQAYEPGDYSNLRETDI
Procedure, shortened: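 Radioactivity counted by liquid scintillation after radioligand binding to membranes. Receptors: cloned α-1a, α-1b, α-1d stably expressed in LTK mouse fibroblasts (G418 selection, SV40 early promoter); rat submaxillary gland membranes for pharmacologically defined α-1A.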

[1] = [3H]-prazosin radioligand, cloned receptor in LTK cell membranes

SMILES	Kb (α-1B adrenoreceptor) [nM]	Ki (α-1d adrenoreceptor; [1]) [nM]	Ki (α-1d adrenoreceptor) [nM]	In Vitro Characterization (pA2) Rat Spleen (α-1B adrenoreceptor)
COc1cccc2c1[C@@H]1CN(CCCCn3c(=O)[nH]c4c(sc5c(OC)ccnc54)c3=O)C[C@H]1CO2 [Example 17, 3-[4-((3aS,9bR)-trans-9-Methoxy-1,2,3,3a,4,9b-hexahydro-[1]-benzopyrano[3,4-c]pyrrol-2-yl)butyl]-6-methoxy-pyrido[2',3':4,5]thieno[3,2-d]pyrimidine-2,4(1H,3H)-dione dihydrochloride]	11	0.19		
COc1cccc2c1[C@@H]1CCN(CCCCn3c(=O)[nH]c4c(sc5ncc(Cl)nc54)c3=O)C[C@H]1CO2 [Example 97, 3-[4-((4aS,10bR)-trans-10-Methoxy-1,3,4,4a,5,10b-hexahydro-2H-[1]-benzopyrano[3,4-c]pyrido-3-yl)butyl]-8-chloro-pyrazino[2',3':4,5]thieno[3,2-d]pyrimidine-2,4(1H,3H)-dione dihydrochloride]	17.4	0.247		
COc1cccc2c1[C@@H]1CN(CCCCn3c(=O)[nH]c4c(sc5ncc(-c6ccccc6)nc54)c3=O)C[C@@H]1CO2 [Example 39, 3-[4-((3aR,9bR)-cis-9-Methoxy-1,2,3,3a,4,9b-hexahydro-[1]-benzopyrano[3,4-c]pyrrol-2-yl)butyl]-8-phenyl-pyrazino[2',3':4,5]thieno[3,2-d]pyrimidine-2,4(1H,3H)-dione hydrochloride]	148	2.15		
COc1cccc2c1[C@@H]1CN(CCCCn3c(=O)[nH]c4c(sc5ccncc54)c3=O)C[C@@H]1CO2 [Example 28, 3-[4-((3aR,9bR)-cis-9-Methoxy-1,2,3,3a,4,9b-hexahydro-[1]-benzopyrano[3,4-c]pyrrol-2-yl)butyl]-pyrido[3',4':4,5]thieno[3,2-d]pyrimidine-2,4(1H,3H)-dione dihydrochloride]	4.37	0.195		
COc1cccc2c1OC[C@H]1CN(CCn3c(=O)[nH]c4c(sc5ccccc54)c3=O)C[C@@H]21.Cl (racemic) [Example 67, 3-[2-((±)-cis-6-Methoxy-1,2,3,3a,4,9b-hexahydro-[1]-benzopyrano[3,4-c]pyrrol-2-yl)ethyl]-[1]benzthieno[3,2-d]pyrimidine-2,4(1H,3H)-dione hydrochloride]	148		65	
COc1cccc2c1[C@@H]1CCN(CCCCn3c(=O)[nH]c4c(sc5cccnc54)c3=O)C[C@H]1CO2 [Example 95, 3-[4-((4aS,10bR)-trans-10-Methoxy-1,3,4,4a,5,10b-hexahydro-2H-[1]-benzopyrano[3,4-c]pyrido-3-yl)butyl]-pyrido[2',3':4,5]thieno[3,2-d]pyrimidine-2.4(1H,3H)-dione dihydrochloride]	19.1	23		
COc1cnc2sc3c(=O)n(CCCCN4CC5COc6cccc(OC)c6[C@@H]5C4)c(=O)[nH]c3c2n1.Cl (stereo in doubt) [Example 43, 3-[4-((3aS,9bR)-trans-9-Methoxy-1,2,3,3a,4,9b-hexahydro-[1]-benzopyrano[3,4-c]pyrrol-2-yl)butyl]-8-methoxy-pyrazino[2',3':4,5]thieno[3,2-d]pyrimidine-2,4(1H,3H)-dione hydrochloride]		0.063		7.66
COc1cccc2c1[C@@H]1CN(CCCCn3c(=O)[nH]c4c(sc5nc(C)ccc54)c3=O)C[C@H]1CO2 [Example 45, 3-[4-((3aS,9bR)-trans-9-Methoxy-1,2,3,3a,4,9b-hexahydro-[1]-benzopyrano[3,4-c]pyrrol-2-yl)butyl]-7-methyl-pyrido[3',2':4,5]thieno[3,2-d]pyrimidine-2,4(1H,3H)-dione hydrochloride]	1.29	0.104		
COc1cccc2c1[C@H]1CN(CCCCn3c(=O)[nH]c4c(sc5nccnc54)c3=O)C[C@@H]1CO2.Cl.Cl (racemic) [Example 74, 3-[4-((±)-trans-9-Methoxy-1,2,3,3a,4,9b-hexahydro-[1]-benzopyrano[3,4-c]pyrrol-2-yl)butyl]-pyrazino[2',3':4,5]thieno[3,2-d]pyrimidine-2,4(1H,3H)-dione dihydrochloride]	6.46		2.94	
COc1cccc2c1[C@@H]1CN(CCn3c(=O)[nH]c4c(sc5ccccc54)c3=O)C[C@@H]1CO2.Cl (racemic) [Example 65, 3-[2-((±)-cis-9-Methoxy-1,2,3,3a,4,9b-hexahydro-[1]-benzopyrano[3,4-c]pyrrol-2-yl)ethyl]-[1]benzthieno[3,2-d]pyrimidine-2,4(1H,3H)-dione hydrochloride]			25	
COc1cccc2c1[C@@H]1CN(CCCCn3c(=O)[nH]c4c(sc5cccnc54)c3=O)C[C@@H]1CO2 [Example 1, 3-[4-((3aR,9bR)-cis-9-Methoxy-1,2,3,3a,4,9b-hexahydro-[1]-benzopyrano[3,4-c]pyrrol-2-yl)butyl]-pyrido[2',3':4,5]thieno[3,2-d]pyrimidine-2,4(1H,3H)-dione hydrochloride]		0.223		
COc1cccc2c1OC[C@H]1CN(CCCn3c(=O)[nH]c4c(sc5ccccc54)c3=O)C[C@@H]21.Cl (racemic) [Example 68, 3-[3-((±)-cis-6-Methoxy-1,2,3,3a,4,9b-hexahydro-[1]-benzopyrano[3,4-c]pyrrol-2-yl)propyl]-[1]benzthieno[3,2-d]pyrimidine-2,4(1H,3H)-dione hydrochloride]			42.5	
COc1ccc2c(c1)OC[C@H]1CN(CCn3c(=O)[nH]c4c(sc5ccccc54)c3=O)C[C@@H]21.Cl (racemic) [Example 63, 3-[2-((±)-cis-7-Methoxy-1,2,3,3a,4,9b-hexahydro-[1]-benzopyrano[3,4-c]pyrrol-2-yl)ethyl]-[1]benzthieno[3,2-d]pyrimidine-2,4(1H,3H)-dione hydrochloride]			70.1	
COc1cccc2c1[C@@H]1CN(CCCn3c(=O)[nH]c4c(sc5ccccc54)c3=O)C[C@@H]1CO2.Cl (racemic) [Example 66, 3-[3-((±)-cis-9-Methoxy-1,2,3,3a,4,9b-hexahydro-[1]-benzopyrano[3,4-c]pyrrol-2-yl)propyl]-[1]benzthieno[3,2-d]pyrimidine-2,4(1H,3H)-dione hydrochloride]			87.7	
COc1cccc2c1[C@@H]1CCN(CCCCn3c(=O)[nH]c4c(sc5ncccc54)c3=O)C[C@H]1CO2 (racemic) [Example 85, 3-[4-((±)-trans-10-Methoxy-1,3,4,4a,5,10b-hexahydro-2H-[1]-benzopyrano[3,4-c]pyrido-3-yl)butyl]-pyrido[3',2':4,5]thieno[3,2-d]pyrimidine-2,4(1H,3H)-dione dihydrochloride]		0.566		
COc1cccc2c1[C@H]1CN(CCCCn3c(=O)[nH]c4c(sc5cccnc54)c3=O)C[C@H]1CO2 [Example 2, 3-[4-((3aS,9bS)-cis-9-Methoxy-1,2,3,3a,4,9b-hexahydro-[1]-benzopyrano[3,4-c]pyrrol-2-yl)butyl]-pyrido[2',3':4,5]thieno[3,2-d]pyrimidine-2,4(1H,3H)-dione hydrochloride]		2.72		
COc1cccc2c1[C@@H]1CN(CCCCn3c(=O)[nH]c4c(sc5cccnc54)c3=O)C[C@H]1CO2 [Example 3, 3-[4-((3aS,9bR)-trans-9-Methoxy-1,2,3,3a,4,9b-hexahydro-[1]-benzopyrano[3,4-c]pyrrol-2-yl)butyl]-pyrido[2',3':4,5]thieno[3,2-d]pyrimidine-2,4(1H,3H)-dione hydrochloride]		0.041		
Cl.O=c1[nH]c2c(sc3ccccc32)c(=O)n1CCN1C[C@@H]2COc3ccccc3[C@@H]2C1 (racemic) [Example 69, 3-[2-((±)-cis-1,2,3,3a,4,9b-hexahydro-[1]-benzopyrano[3,4-c]pyrrol-2-yl)ethyl]-[1]benzthieno[3,2-d]pyrimidine-2,4(1H,3H)-dione hydrochloride]			1.63	
COc1ccc2c(c1)OC[C@H]1CN(CCCn3c(=O)[nH]c4c(sc5ccccc54)c3=O)C[C@@H]21.Cl (racemic) [Example 64, 3-[3-((±)-cis-7-Methoxy-1,2,3,3a,4,9b-hexahydro-[1]-benzopyrano[3,4-c]pyrrol-2-yl)propyl]-[1]benzthieno[3,2-d]pyrimidine-2,4(1H,3H)-dione hydrochloride]			10.4	
